Like-named read-outs stand apart in the source and are kept apart here. One block for each compound: values may come before it. Where a SMILES comes first, the peptide text is derived from it. Bridges are numbered along the chain shown (N, C = ends). Where no end group is shown, it is not given here. [ ]: non-standard residue; d: D form. The star is where a group is joined. BODIPYFLEthylmaleimide = Cc1cc(C)n2c1C=C1C=CC(CCC(=O)NCCN3C(=O)CC(*)C3=O)=[N+]1[B-]2(F)F; R8 = C=CCCCCCC[C@@](C)(N)C(=O)O; S5 = C=CCCC[C@](C)(N)C(=O)O
Legend:
NF-κB pathway = NF-κB pathway (Mus musculus, UniProt O88522); test: NF-κB inhibition assay, LPS-stimulated 70Z3-C3 lacZ reporter cells; format: cell-based; conditions: 70Z3-C3 cells, 2 h peptide then LPS 4 h, N.I = No inhibition observed; for IC50: read-out: IC 50 NF-κB inhibition
From the text: The stable cell line of pre-B lymphocyte 70Z3-C3 cells expressing the lacZ reporter gene under the control of NF-κB was previously described. OCI-Ly3 (ABC-DLBCL, MALT1 dependent) and OCI-Ly7 (GCB-DLBCL). U2932 (ABC-DLBCL, MALT1 independent) were purchased from DSMZ (Deutsche Sammlung von Mikroorganismen and Zellkulturen) and HLY1 (ABC-DLBCL, MALT1 independent). Jurkat T-cells were obtained after transduction of lentiviruses containing a NF-κB reporter luciferase gene as previously described. All cell lines were grown in RPMI 1640 medium supplemented with 10% FBS, 10 μg/ml of streptomycin, 10 U/ml of penicillin and kept at 37° C., in a 5% CO2 humidified incubator. 0.05 mM of β-mercaptoethanol was added for 70Z3-C3. Primary and secondary antibodies were as following: polyclonal rabbit anti NF-κB p65, (sc-372, Santa Cruz Biotechnology, Inc) Alexa-488 coupled goat anti-rabbit IgG1 (Invitrogen) NF-κB inhibition assay was almost similar to those previously described in [1], except that luminescence data were monitored with a Centro XS^3, LB960 luminometer (Berthold technologies.), which is more sensitive. All experiments were performed in duplicates in 96-well plates. […] After 4 h incubation, cells were centrifuged 7 min at 400×g, at 4° C.

CC2-LZ domain of NEMO = CC2-LZ domain of NEMO (Mus musculus, UniProt O88522); test: Fluorescence anisotropy/polarization binding assay; conditions: for Kd: fixed peptide concentration 0.1 μM
[1] = Temperature-induced denaturation followed by CD; format: physicochemical; conditions: 30 μM or 300 μM, ΔCp ≈ 0
Procedure: Temperature-induced denaturation experiments were performed by measuring the ellipticity at 222 nm from 1° C. to 95° C. in 1° C. steps, at a rate of 1° C./min, with a 2 nm bandwidth. Thermodynamic parameters including the melting temperature (Tm) and the van't Hoff enthalpy change at the melting temperature (ΔHm) were determined by fitting the denaturation curves with the Gibbs-Helmholtz equation as described elsewhere, [10]. The heat capacity change (ΔCp) was assumed to be 0 as judged by ΔHm which yielded similar values within 10% at two independent peptide concentrations (30 and 300 μM). The ellipticity was converted to differential extinction coefficient Δε (M^−1·cm^−1) per residue taking into account the peptide concentration determined by amino acid analysis.
Thermal stability of the peptides was also investigated by performing thermal denaturation profiles followed by CD (FIGS. 1 C and D and Table III). […] Indeed, the helicity of UBI-Aib (49%) is only 1.16-fold increased at 1° C. compared to UBI (42%), while its melting temperature (Tm=−8° C.) is 2.25 times higher than that of UBI (Tm=−18° C.).

[2] = CD spectroscopy, α-helical content; format: physicochemical; conditions: 50 μM peptide, phosphate buffer pH 7.0, UBI in TFE taken as 100%
70Z3-C3 cells = test: Cellular uptake of BODIPY-labeled peptides by FACS; format: cell-based; conditions: 10 μM labeled peptide, 2 h, 37° C.
Procedure: 2.2×10^5 cells in 100 μl of 70Z3-C3 were incubated with either 10 μM or with various doses of 10 μM, 5 μM and 1 μM of labeled-peptides at 37° C., 5% CO2. Similarly to fluorescence microscopy experiments, cells alone or incubated with BODIPY®-labeled BSA (ref) or BODIPY®-UBI devoid of the antennapedia cell penetrating sequence were used as negative control, whereas cells with BA-UBI [1] at 10 μM were used as positive control. After 2 h incubation, cells were washed 4 times with PBS at room temperature, and finally diluted 1:3 in PBS before subjected to FACS analysis. Along with the BODIPY® fluorophore the fluorescence intensity was recorded at 525±25 nm using the Gallios Flow cytometer (Beckman Coulter) to analyse each cells sample. Each internalization peptide was assessed by gating a population of 15,000 events and the data were analysed using Kaluza software version 1.2.
For determination of cellular uptake by flow cytometry, the BA-UBI-SAHND306-Q313 stapled peptide was first incubated with 2.2×10^5 70Z3-C3 cells in […] either at 4° C. or 37° C. for 2 h. Bodipy-labeled BSA, bodipy alone and bodipy-UBI were used as negative controls to verify the washing quality and efficient removal of any non-specific binding at the cell surface before FACS analysis. […] After 2 h of incubation, cells were washed four times with PBS at room temperature and diluted at 1:3 in PBS for FACS analysis. Samples were analyzed as previously described in the European patent (No: 15307137.8).

Sequence of NF-κB pathway (O88522 whole entry): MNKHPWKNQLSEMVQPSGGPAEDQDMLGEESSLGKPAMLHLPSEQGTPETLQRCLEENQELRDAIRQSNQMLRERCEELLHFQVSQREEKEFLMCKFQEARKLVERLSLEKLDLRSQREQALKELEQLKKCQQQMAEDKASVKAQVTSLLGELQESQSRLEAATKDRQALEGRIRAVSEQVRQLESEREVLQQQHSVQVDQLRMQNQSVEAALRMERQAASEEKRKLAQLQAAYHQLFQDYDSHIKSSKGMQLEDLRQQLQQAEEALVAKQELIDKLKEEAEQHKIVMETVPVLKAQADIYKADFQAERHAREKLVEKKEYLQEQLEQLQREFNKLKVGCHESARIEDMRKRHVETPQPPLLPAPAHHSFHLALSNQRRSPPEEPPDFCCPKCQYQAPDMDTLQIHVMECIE
Sequence of CC2-LZ domain of NEMO (O88522 242-343 limits assumed): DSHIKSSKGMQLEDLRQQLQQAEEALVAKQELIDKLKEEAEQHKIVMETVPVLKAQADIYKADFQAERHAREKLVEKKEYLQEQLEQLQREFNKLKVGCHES

IC 50 NF-κB inhibition (NF-κB pathway): N.I*
Compound: CC[C@H](C)[C@H](NC(=O)[C@H](CC(=O)O)NC(=O)[C@H](C)NC(=O)[C@H](CCC(N)=O)NC(=O)[C@H](C)NC(=O)[C@H](CCCCN)NC(=O)[C@@H](N)CC(C)C)C(=O)N[C@@H](Cc1ccc(O)cc1)C(=O)N[C@@H](CCCCN)C(=O)N[C@@H](C)C(=O)N[C@@H](CCCNC(=N)N)C(=O)N[C@@H](Cc1ccccc1)C(=O)N[C@@H](CCC(N)=O)C(=O)N[C@@H](C)C(=O)N[C@@H](CCC(=O)O)C(=O)N[C@@H](CCCNC(=N)N)C(=O)N[C@@H](Cc1c[nH]cn1)C(=O)N[C@@H](C)C(=O)N[C@@H](CCCNC(=N)N)C(=O)N[C@@H](CCC(=O)O)C(=O)N[C@@H](CCCCN)C(=O)O [UBI, reference compound] (H-LKAQADIYKARFQAERHAREK-OH)

IC 50 NF-κB inhibition (NF-κB pathway): N.I*
Compound: CC[C@H](C)[C@H](NC(=O)[C@H](CC(=O)O)NC(=O)C(C)(C)NC(=O)[C@H](CCC(N)=O)NC(=O)C(C)(C)NC(=O)[C@H](CCCCN)NC(=O)[C@@H](N)CC(C)C)C(=O)N[C@@H](Cc1ccc(O)cc1)C(=O)N[C@@H](CCCCN)C(=O)NC(C)(C)C(=O)N[C@@H](CCCNC(=N)N)C(=O)N[C@@H](Cc1ccccc1)C(=O)N[C@@H](CCC(N)=O)C(=O)NC(C)(C)C(=O)N[C@@H](CCC(=O)O)C(=O)N[C@@H](CCCNC(=N)N)C(=O)N[C@@H](Cc1c[nH]cn1)C(=O)NC(C)(C)C(=O)N[C@@H](CCCNC(=N)N)C(=O)N[C@@H](CCC(=O)O)C(=O)N[C@@H](CCCCN)C(=O)O [UBI-AIB, LKAibQAibDIYKAibRFQAibERHAibREK] (HELM PEPTIDE1{L.K.[Aib].Q.[Aib].D.I.Y.K.[Aib].R.F.Q.[Aib].E.R.H.[Aib].R.E.K}$$$$V2.0)

ΔS [1]: −11 cal. mol^−1.K^−1 | Tm ([1]; thermal denaturation by CD): 15 ± 0.3 C° | ΔH ([1]; van't Hoff enthalpy change at Tm): -3.2 kcal/mol | α-helical content at 1° C. [2]: 65% | Kd (CC2-LZ domain of NEMO; read-out: Binding affinity (FP) at 0.1 μM): ~360000 nM | Binding affinity (FP) at 10 μM (CC2-LZ domain of NEMO; fixed peptide concentration 10 μM): Very weak | IC 50 NF-κB inhibition (NF-κB pathway): N.I*
Compound: CC[C@H](C)[C@H](NC(=O)[C@H](CC(=O)O)NC(=O)[C@H](C)NC(=O)[C@H](CCC(N)=O)NC(=O)[C@H](C)NC(=O)[C@H](CCCCN)NC(=O)[C@H](CC(C)C)NC(=O)[C@H](CSC1CC(=O)N(CCNC(=O)CCC2=[N+]3C(=Cc4c(C)cc(C)n4[B-]3(F)F)C=C2)C1=O)NC(C)=O)C(=O)N[C@@H](Cc1ccc(O)cc1)C(=O)N[C@@H](CCCCN)C(=O)N[C@@]1(C)CCCC=CCCC[C@@](C)(C(=O)N[C@@H](CCC(=O)O)C(=O)N[C@@H](CCCNC(=N)N)C(=O)N[C@@H](Cc2c[nH]cn2)C(=O)N[C@@H](C)C(=O)N[C@@H](CCCNC(=N)N)C(=O)N[C@@H](CCC(=O)O)C(=O)N[C@@H](CCCCN)C(N)=O)NC(=O)[C@H](CCC(N)=O)NC(=O)[C@H](Cc2ccccc2)NC(=O)[C@H](CCCNC(=N)N)NC1=O (some centres unmarked) [UBI-SAHN A310-A314, LKAQADIYKX4RFQX6ERHAREK] (Ac-C(BODIPYFLEthylmaleimide)LKAQADIYK[S5]RFQ[S5]ERHAREK-NH2; staple 11-15)

IC 50 NF-κB inhibition (NF-κB pathway): N.I*
Compound: LKX1QADIYKX4RFQAERHAREK [UBI-SAHN A303-A310]
FACS peak median, first or only peak (70Z3-C3 cells): 8

The next lines start with the compound.

Compound: CC[C@H](C)[C@@H]1NC(=O)[C@H](CC(=O)O)NC(=O)[C@H](C)NC(=O)[C@H](CCC(N)=O)NC(=O)[C@](C)(NC(=O)[C@H](CCCCN)NC(=O)[C@H](CC(C)C)NC(=O)[C@H](CCCCN)NC(=O)[C@H](CCCCN)NC(=O)[C@H](Cc2c[nH]c3ccccc23)NC(=O)[C@H](CCCCN)NC(=O)[C@H](CCSC)NC(=O)[C@H](CCCNC(=N)N)NC(=O)[C@H](CCCNC(=N)N)NC(=O)[C@H](CC(N)=O)NC(=O)[C@H](CCC(N)=O)NC(=O)[C@H](Cc2ccccc2)NC(=O)[C@H](Cc2c[nH]c3ccccc23)NC(=O)[C@@H](NC(=O)[C@H](CCCCN)NC(=O)[C@@H](NC(=O)[C@H](CCC(N)=O)NC(=O)[C@H](CCCNC(=N)N)NC(=O)[C@H](CSC2CC(=O)N(CCNC(=O)CCC3=[N+]4C(=Cc5c(C)cc(C)n5[B-]4(F)F)C=C3)C2=O)NC(C)=O)[C@@H](C)CC)[C@@H](C)CC)CCCCCCC=CCCC[C@@](C)(C(=O)N[C@@H](CCCNC(=N)N)C(=O)N[C@@H](Cc2ccccc2)C(=O)N[C@@H](CCC(N)=O)C(=O)N[C@@H](C)C(=O)N[C@@H](CCC(=O)O)C(=O)N[C@@H](CCCNC(=N)N)C(=O)N[C@@H](Cc2c[nH]cn2)C(=O)N[C@@H](C)C(=O)N[C@@H](CCCNC(=N)N)C(=O)N[C@@H](CCC(=O)O)C(=O)N[C@@H](CCCCN)C(N)=O)NC(=O)[C@H](CCCCN)NC(=O)[C@H](Cc2ccc(O)cc2)NC1=O (single isomer, unassigned) [A-UBI-SAHN A303-A310 (B)]
IC50 (NF-κB pathway): 600 nM

Compound: CC[C@H](C)[C@H](NC(=O)[C@H](CCCCN)NC(=O)[C@@H](NC(=O)[C@H](CCC(N)=O)NC(=O)[C@H](CCCNC(=N)N)NC(=O)[C@H](CSC1CC(=O)N(CCNC(=O)CCC2=[N+]3C(=Cc4c(C)cc(C)n4[B-]3(F)F)C=C2)C1=O)NC(C)=O)[C@@H](C)CC)C(=O)N[C@@H](Cc1c[nH]c2ccccc12)C(=O)N[C@@H](Cc1ccccc1)C(=O)N[C@@H](CCC(N)=O)C(=O)N[C@@H](CC(N)=O)C(=O)N[C@@H](CCCNC(=N)N)C(=O)N[C@@H](CCCNC(=N)N)C(=O)N[C@@H](CCSC)C(=O)N[C@@H](CCCCN)C(=O)N[C@@H](Cc1c[nH]c2ccccc12)C(=O)N[C@@H](CCCCN)C(=O)N[C@@H](CCCCN)C(=O)N[C@@H](CC(C)C)C(=O)N[C@@H](CCCCN)C(=O)N[C@@H](C)C(=O)N[C@@H](CCC(N)=O)C(=O)N[C@@H](C)C(=O)N[C@]1(C)CCCCCCC=CCCC[C@@](C)(C(=O)N[C@@H](C)C(=O)N[C@@H](CCC(=O)O)C(=O)N[C@@H](CCCNC(=N)N)C(=O)N[C@@H](Cc2c[nH]cn2)C(=O)N[C@@H](C)C(=O)N[C@@H](CCCNC(=N)N)C(=O)N[C@@H](CCC(=O)O)C(=O)N[C@@H](CCCCN)C(N)=O)NC(=O)[C@H](Cc2ccccc2)NC(=O)[C@H](CCCNC(=N)N)NC(=O)[C@H](C)NC(=O)[C@H](CCCCN)NC(=O)[C@H](Cc2ccc(O)cc2)NC(=O)[C@H]([C@@H](C)CC)NC1=O (single isomer, unassigned) [A-UBI-SAHN D306-Q313 (A)]
Kd (CC2-LZ domain of NEMO; peptides with antennapedia, read-out: KD): 60 nM | IC50 (NF-κB pathway): 600 nM

Compound: LKAQAX2IYKARFX5AERHAREK (LKAQA[R8]IYKARF[S5]AERHAREK; staple 6-13) [UBI-SAHN D306-Q313]
FACS peak median, first or only peak (70Z3-C3 cells): 8 | FACS peak median, second peak (70Z3-C3 cells): 52 | IC 50 NF-κB inhibition (NF-κB pathway): N.I*
